Reference: patent publication US20220029188A1, “REDOX FLOW BATTERY” (IP2IPO Innovations Limited, priority 2018, published 2022)
Values after ≈ are worked out from the molar mass of the structure shown. Read-outs that look alike come from different tables or passages of the source.

Tests used:
[1] = Standard electrochemical potential from CV experiments; assay type: physicochemical
Method: (§1) Rotating Disk Electrode (RDE) techniques were performed using a mirror polished glassy 5 mm diameter carbon disk electrode (Pine Instruments, AFE6R1 AU) equipped within a rotator (AFMSRCE). Electrochemical tests were performed using a potentiostat (Autolab, model PGSTAT20) and a three-compartment electrochemical glass cell which employed a Pt wire counter electrode. A saturated calomel reference electrode (SCE, E°=0.244 V vs. SHE at 25° C.) was used as the reference electrode, which was ionically connected to the main compartment of the electrochemical glass cell via a Luggin capillary.
(§2) The rotation rates were from 500 rpm to 3000 rpm. CV scan rates were from 10 mV s^−1 to 200 mV s^−1. LSV scan rate was 5 mV s^−1.

[2] = Rotating disk electrode LSV, Levich, Koutecký-Levich and Tafel analysis, 1 mM BQDS in 1 M H2SO4; assay type: physicochemical
Method: as §1, §2

[3] = Cyclic voltammogram of 1 mM BQ in 1 M H2SO4; assay type: physicochemical; conditions: 1 mM in 1 M sulphuric acid, scan rate 50 mV s^−1, glassy carbon electrode
Description: The working electrode was a glassy carbon electrode and the counter electrode was a platinum wire.

[4] = Rotating disk electrode measurements (Levich equation), Example 6; assay type: physicochemical; conditions: 1 mM, kinematic viscosity 0.01 cm^2 s^−1
Method: The hydroquinone concentration was 1 mM and the kinematic viscosity of the solution was 0.01 cm^2 s^−1. Using the Levich equation, the diffusion coefficient of benzoquinone was calculated to be 1.5707×10^−7 cm^2 s^−1.

[5] = comparison systems; cited from earlier work
[6] = comparison systems; cited from earlier work; remark: listed apart in the source
[7] = comparison species; cited from earlier work

| Structure (SMILES) | solubility [5] [mM] | electrochemical potential [6] | diffusion coefficient [7] | charge transfer coefficient [7] | other results |
| --- | --- | --- | --- | --- | --- |
| O=S(=O)([O-])c1cc(O)c(O)c(S(=O)(=O)[O-])c1.[Na+].[Na+] [BQDS, 4,5-Dihydroxy-1,3-benzenedisulfonic acid disodium salt monohydrate] | – | – | – | – | standard electrochemical potential [1]: 0.86 V vs SHE; diffusion coefficient ([2]; determined from LSV, 1 mM in 1 M H2SO4): 5.15×10^−6 cm^2 s^−1; charge transfer coefficient ([2]; from Koutecký-Levich plots and Tafel plot): 0.34 |
| O=C1C=C(S(=O)(=O)O)C=C(S(=O)(=O)O)C1=O [BQ] | – | – | – | – | oxidation peak [3]: 1 V vs MSE; reduction peak [3]: 0.7 V vs MSE; diffusion coefficient [4]: 1.5707×10^−7 cm^2 s^−1 |
| C[N+](C)(C)C[c-]1cccc1.[Cl-].[Fe+2].c1cc[cH-]c1 [Fe-NCL, (ferrocenylmethyl)trimethylammonium chloride] | 4000 | 0.67 V vs SHE | 3.74×10^−6 cm^2 s^−1 | – | – |
| CC1(C)CCCC(C)(C)N1[O] [TEMPO] | – | 0.90 V vs SHE | 7.00×10^−8 cm^2 s^−1 | 0.68 | – |
| Oc1ccc(O)cc1 [hydroquinone] | 500 (≈ 55.1 mg/mL) | identical potential as Fe-NCL | 5.03×10^−6 cm^2 s^−1 | 0.51 | – |
